Laboratory results taken from patent publication US6737383B1, “Herbicidal oxadiazolidines” (priority 1999, dated 2004).

Key:
crabgrass = assay: Test B pre/postemergence crabgrass; format: in vivo, Digitaria sanguinalis
How it was run: (§1)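 Herbicidal effect was estimated by eye on a ten-point control scale after plants spent twelve to sixteen days in a greenhouse following soil or foliar treatment. Foliar sprays targeted plants at one to four leaves; all doses were formulated in a non-phytotoxic solvent with surfactant.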

giant foxtail = assay: Test B pre/postemergence giant foxtail; format: in vivo, Setaria faberii
How it was run: as §1

rape = assay: Test B pre/postemergence rape; format: in vivo, Brassica napus
How it was run: as §1

purple nutsedge = assay: Test B pre/postemergence purple nutsedge; format: in vivo, Cyperus rotundus
How it was run: as §1

morningglory = assay: Test B pre/postemergence morningglory; format: in vivo, Ipomoea hederacea
How it was run: as §1

wild oat = assay: Test B pre/postemergence wild oat; format: in vivo, Avena fatua
How it was run: as §1

blackgrass = assay: Test B pre/postemergence blackgrass; format: in vivo, Alopecurus myosuroides
How it was run: as §1

cocklebur = assay: Test B pre/postemergence cocklebur; format: in vivo, Xanthium strumarium
How it was run: as §1

wheat = assay: Test B pre/postemergence wheat; format: in vivo, Triticum aestivum
How it was run: as §1

surinam grass = assay: Test B pre/postemergence surinam grass; format: in vivo, Brachiaria decumbens
How it was run: as §1

soybean = assay: Test B pre/postemergence soybean; format: in vivo, Glycine max
How it was run: as §1

pigweed = assay: Test B pre/postemergence pigweed; format: in vivo, Amaranthus retroflexus
How it was run: as §1

corn = assay: Test B pre/postemergence corn; format: in vivo, Zea mays
How it was run: as §1

bedstraw = assay: Test B pre/postemergence bedstraw; format: in vivo, Galium aparine
How it was run: as §1

sugar beet = assay: Test B pre/postemergence sugar beet; format: in vivo, Beta vulgaris
How it was run: as §1

velvetleaf = assay: Test B pre/postemergence velvetleaf; format: in vivo, Abutilon theophrasti
How it was run: as §1

[1] = Postemergence, Rate 62 g/ha, scale 0 to 10, 0 is no effect, 10 is complete control
[2] = Postemergence, Rate 125 g/ha, scale of 0 to 10 where 0 is no effect and 10 is complete control
[3] = Postemergence, Rate 500 g/ha, scale 0 (no effect) to 10 (complete control)
[4] = Preemergence, Rate 250 g/ha, scale 0 (no effect) to 10 (complete control)
[5] = Rate 62 g/ha, Preemergence, scale 0 to 10
[6] = Rate 125 g/ha, Preemergence, scale 0 to 10 (0 no effect, 10 complete control)
[7] = Rate 250 g/ha, Postemergence, scale 0 to 10, 0 is no effect, 10 is complete control
[8] = Rate 500 g/ha, Preemergence, scale 0 to 10 (0 no effect, 10 complete control)

In the case of `C#CCn1c(=O)on(C(=O)N(c2ccc(F)cc2F)C(C)C)c1=O` [Compound 764], the “Plant response rating, Crabgrass” value (crabgrass; [1]) is reported as 0, the “Crabgrass plant response rating” value (crabgrass; [2]) is reported as 6 and the “Crabgrass plant response rating” value (crabgrass; [3]) is reported as 9. For the same compound, the “Crabgrass plant response rating” value (crabgrass; [4]) was 10, the “Crabgrass plant response rating” value (crabgrass; [5]) was 10 and the “Crabgrass plant response rating” value (crabgrass; [6]) was 10. For the same compound, the “Crabgrass plant response rating” value (crabgrass; [7]) was 9, the “Crabgrass plant response rating” value (crabgrass; [8]) was 10 and the “Plant response rating, Giant foxtail” value (giant foxtail; [1]) was 3. The “Giant foxtail plant response rating” value (giant foxtail; [2]) was 7, the “Giant foxtail plant response rating” value (giant foxtail; [3]) was 8 and the “Giant foxtail plant response rating” value (giant foxtail; [4]) was 10. For the same compound, the “Giant foxtail plant response rating” value (giant foxtail; [5]) was 10, the “Giant foxtail plant response rating” value (giant foxtail; [6]) was 10 and the “Giant foxtail plant response rating” value (giant foxtail; [7]) was 8. For the same compound, the “Giant foxtail plant response rating” value (giant foxtail; [8]) was 10, the “Plant response rating, Rape” value (rape; [1]) was 0 and the “Rape plant response rating” value (rape; [2]) was 0. For the same compound, the “Rape plant response rating” value (rape; [3]) was 7, the “Rape plant response rating” value (rape; [4]) was 9 and the “Rape plant response rating” value (rape; [5]) was 0. The “Rape plant response rating” value (rape; [6]) was 0, the “Rape plant response rating” value (rape; [7]) was 3 and the “Rape plant response rating” value (rape; [8]) was 10. For the same compound, the “Plant response rating, Nutsedge” value (purple nutsedge; [1]) was 0, the “Nutsedge plant response rating” value (purple nutsedge; [2]) was 0 and the “Nutsedge plant response rating” value (purple nutsedge; [3]) was 3. For the same compound, the “Nutsedge plant response rating” value (purple nutsedge; [4]) was 0, the “Nutsedge plant response rating” value (purple nutsedge; [5]) was 0 and the “Nutsedge plant response rating” value (purple nutsedge; [6]) was 0. The “Nutsedge plant response rating” value (purple nutsedge; [7]) was 0, the “Nutsedge plant response rating” value (purple nutsedge; [8]) was 4 and the “Plant response rating, Morningglory” value (morningglory; [1]) was 1. The “Morningglory plant response rating” value (morningglory; [2]) was 1, the “Morningglory plant response rating” value (morningglory; [3]) was 5 and the “Morningglory plant response rating” value (morningglory; [4]) was 0. For the same compound, the “Morningglory plant response rating” value (morningglory; [5]) was 0, the “Morningglory plant response rating” value (morningglory; [7]) was 2 and the “Morningglory plant response rating” value (morningglory; [8]) was 2. The “Plant response rating, Wild oats” value (wild oat; [1]) was 0, the “Wild oats plant response rating” value (wild oat; [3]) was 3 and the “Wild oats plant response rating” value (wild oat; [4]) was 6. For the same compound, the “Wild oats plant response rating” value (wild oat; [5]) was 0, the “Wild oats plant response rating” value (wild oat; [6]) was 3 and the “Wild oats plant response rating” value (wild oat; [7]) was 2. For the same compound, the “Wild oats plant response rating” value (wild oat; [8]) was 7, the “Plant response rating, Blackgrass” value (blackgrass; [1]) was 3 and the “Blackgrass plant response rating” value (blackgrass; [2]) was 6. For the same compound, the “Blackgrass plant response rating” value (blackgrass; [3]) was 8, the “Blackgrass plant response rating” value (blackgrass; [4]) was 8 and the “Blackgrass plant response rating” value (blackgrass; [5]) was 7. For the same compound, the “Blackgrass plant response rating” value (blackgrass; [6]) was 7, the “Blackgrass plant response rating” value (blackgrass; [7]) was 6 and the “Blackgrass plant response rating” value (blackgrass; [8]) was 9. For the same compound, the “Plant response rating, Cocklebur” value (cocklebur; [1]) was 0, the “Cocklebur plant response rating” value (cocklebur; [2]) was 0 and the “Cocklebur plant response rating” value (cocklebur; [3]) was 5. For the same compound, the “Cocklebur plant response rating” value (cocklebur; [4]) was 0, the “Cocklebur plant response rating” value (cocklebur; [5]) was 0 and the “Cocklebur plant response rating” value (cocklebur; [7]) was 2. The “Cocklebur plant response rating” value (cocklebur; [8]) was 8, the “Plant response rating, Wheat” value (wheat; [1]) was 0 and the “Wheat plant response rating” value (wheat; [5]) was 0. The “Wheat plant response rating” value (wheat; [6]) was 3, the “Wheat plant response rating” value (wheat; [7]) was 7 and the “Wheat plant response rating” value (wheat; [8]) was 7. For the same compound, the “Plant response rating, B. signalgrass” value (surinam grass; [1]) was 0, the “B. signalgrass plant response rating” value (surinam grass; [2]) was 0 and the “B. signalgrass plant response rating” value (surinam grass; Preemergence, Rate 62 g/ha, scale of 0 to 10 where 0 is no effect and 10 is complete control) was 8. For the same compound, the “B. signalgrass plant response rating” value (surinam grass; [4]) was 9, the “B. signalgrass plant response rating” value (surinam grass; [6]) was 7 and the “B. signalgrass plant response rating” value (surinam grass; [7]) was 2. The “B. signalgrass plant response rating” value (surinam grass; Rate 500 g/ha, Postemergence, scale 0 to 10, 0 is no effect, 10 is complete control) was 3, the “B. signalgrass plant response rating” value (surinam grass; [8]) was 10 and the “Plant response rating, Soybean” value (soybean; [1]) was 1. The “Soybean plant response rating” value (soybean; [3]) was 4, the “Soybean plant response rating” value (soybean; [4]) was 3 and the “Soybean plant response rating” value (soybean; [5]) was 0. For the same compound, the “Soybean plant response rating” value (soybean; [6]) was 0, the “Soybean plant response rating” value (soybean; [7]) was 3 and the “Soybean plant response rating” value (soybean; [8]) was 5. The “Plant response rating, Redroot pigweed” value (pigweed; [1]) was 0, the “Redroot pigweed plant response rating” value (pigweed; [2]) was 5 and the “Redroot pigweed plant response rating” value (pigweed; [3]) was 7. For the same compound, the “Redroot pigweed plant response rating” value (pigweed; [4]) was 10, the “Redroot pigweed plant response rating” value (pigweed; [5]) was 9 and the “Redroot pigweed plant response rating” value (pigweed; [6]) was 10. The “Redroot pigweed plant response rating” value (pigweed; [7]) was 7, the “Redroot pigweed plant response rating” value (pigweed; [8]) was 10 and the “Plant response rating, Corn” value (corn; [1]) was 0. For the same compound, the “Corn plant response rating” value (corn; [2]) was 0, the “Corn plant response rating” value (corn; [3]) was 4 and the “Corn plant response rating” value (corn; [4]) was 6. The “Corn plant response rating” value (corn; [5]) was 0, the “Corn plant response rating” value (corn; [6]) was 0 and the “Corn plant response rating” value (corn; [7]) was 0. For the same compound, the “Corn plant response rating” value (corn; [8]) was 9, the “Plant response rating, Bedstraw” value (bedstraw; [1]) was 0 and the “Bedstraw plant response rating” value (bedstraw; [2]) was 5. For the same compound, the “Bedstraw plant response rating” value (bedstraw; [3]) was 5, the “Bedstraw plant response rating” value (bedstraw; [4]) was 5 and the “Bedstraw plant response rating” value (bedstraw; [5]) was 0. The “Bedstraw plant response rating” value (bedstraw; [6]) was 5, the “Bedstraw plant response rating” value (bedstraw; [8]) was 8 and the “Plant response rating, Sugarbeets” value (sugar beet; [1]) was 0. The “Sugarbeets plant response rating” value (sugar beet; [3]) was 7, the “Sugarbeets plant response rating” value (sugar beet; [4]) was 5 and the “Sugarbeets plant response rating” value (sugar beet; [5]) was 0. For the same compound, the “Sugarbeets plant response rating” value (sugar beet; [6]) was 0, the “Sugarbeets plant response rating” value (sugar beet; [7]) was 3 and the “Sugarbeets plant response rating” value (sugar beet; [8]) was 8. The “Plant response rating, Velvetleaf” value (velvetleaf; [1]) was 0, the “Velvetleaf plant response rating” value (velvetleaf; [3]) was 4 and the “Velvetleaf plant response rating” value (velvetleaf; [4]) was 5. For the same compound, the “Velvetleaf plant response rating” value (velvetleaf; [5]) was 3, the “Velvetleaf plant response rating” value (velvetleaf; [6]) was 5 and the “Velvetleaf plant response rating” value (velvetleaf; [7]) was 4. The “Velvetleaf plant response rating” value (velvetleaf; [8]) was 8.
